Patent US20120184556A1, “SUBSTITUTED ENZOIMIDAZOLESULFONAMIDES AND SUBSTITUTED INDOLESULFONAMIDES AS MGLUR4 POTENTIATORS” (priority 2009, published 2012)
Counter-ions that a name gives are not always drawn.

Molecular target: T1, human mGluR4 (Homo sapiens, UniProt Q14833)
T1 construct: expressed in transfected cells; host or cells: Chinese Hamster Ovary (CHO) cells
Assay: human mGluR4 potentiation assay, CHO cells, Fluo-4 calcium fluorescence, agonist EC20
Format: cell-based
Settings: for Emax: CHO, maximum extent of potentiation, human mGluR4, read-out: GluMax; for EC50: potentiation of human mGluR4 response to EC20 agonist, read-out: hEC50
Method: The disclosed compounds and compositions can be evaluated for their ability to act as a potentiator of metabotropic glutamate receptor activity, in particular mGluR4 activity, by any suitable known methodology known in the art. For example, Chinese Hamster Ovary (CHO) cells transfected with human mGluR4 or HEK cells co-transfected with rat mGluR4 and the G-protein regulated Inwardly Rectifying Potassium channel (GIRK) were plated in clear bottom assay plates for assay in a Hamamatsu FDSS Fluorometric Plate Reader. The cells were loaded with either the Ca2+-sensitive fluorescent dye Fluo-4 or the thallium responsive dye BTC, AM and the plates were washed and placed into a suitable kinetic plate reader. For human mGluR4 assays, a fluorescence baseline was established for 3-5 seconds, the disclosed compounds were then added to the cells, and the response in cells was measured. Approximately two and a half minutes later, a concentration of mGluR4 agonist (e.g. glutamate or L-AP4) eliciting approximately 20% (EC20) of the maximal agonist response was added to the cells, and the response was measured. Two minutes later, a concentration of mGluR4 agonist (e.g. glutamate or L-AP4) eliciting 80% (EC80) of the maximal agonist response was added to the cells, and the response was measured. For rat mGluR4/GIRK experiments, a baseline was established for approximately five seconds, disclosed compounds were added, and either an EC20 or EC80 concentration of agonist was added approximately two and one half minutes later. Potentiation of the agonist response of mGluR4 by the disclosed compounds was observed as an increase in response to the EC20 concentration of agonist in the presence of compound compared to the response to agonist in the absence of compound. Similarly, antagonism of the agonist response of mGluR4 by the disclosed compounds was observed as a decrease in response to the EC80 concentration of agonist in the presence of compound compared to the response to agonist in the absence of compound.
The above described assay operated in two modes. In the first mode, a range of concentrations of the disclosed compounds are added to cells, followed by a single fixed concentration of agonist. If the compound acts as a potentiatior, an EC50 value for potentiation and a maximum extent of potentiation by the compound at this concentration of agonist is determined by non-linear curve fitting. If the compound acts as a noncompetitive antagonist, an IC50 value is determined by non-linear curve fitting. In the second mode, several fixed concentrations of the disclosed compounds are added to various wells on a plate, followed by a range in concentrations of agonist for each concentration of disclosed compound. The EC50 values for the agonist at each concentration of compound are determined by non-linear curve fitting. A decrease in the EC50 value of the agonist with increasing concentrations of the sample compound (a leftward shift of the agonist concentration-response curve) is an indication of the degree of mGluR4 potentiation at a given concentration of the sample compound. A decrease in the maximal response of the agonist with increasing concentrations of the sample compounds, with or without a rightward shift in agonist potency, is an indication of the degree of noncompetitive antagonism at mGluR4. The second mode also indicates whether the sample compounds also affect the maximum response to mGluR4 to agonists.

T1 sequence (Q14833 33-912): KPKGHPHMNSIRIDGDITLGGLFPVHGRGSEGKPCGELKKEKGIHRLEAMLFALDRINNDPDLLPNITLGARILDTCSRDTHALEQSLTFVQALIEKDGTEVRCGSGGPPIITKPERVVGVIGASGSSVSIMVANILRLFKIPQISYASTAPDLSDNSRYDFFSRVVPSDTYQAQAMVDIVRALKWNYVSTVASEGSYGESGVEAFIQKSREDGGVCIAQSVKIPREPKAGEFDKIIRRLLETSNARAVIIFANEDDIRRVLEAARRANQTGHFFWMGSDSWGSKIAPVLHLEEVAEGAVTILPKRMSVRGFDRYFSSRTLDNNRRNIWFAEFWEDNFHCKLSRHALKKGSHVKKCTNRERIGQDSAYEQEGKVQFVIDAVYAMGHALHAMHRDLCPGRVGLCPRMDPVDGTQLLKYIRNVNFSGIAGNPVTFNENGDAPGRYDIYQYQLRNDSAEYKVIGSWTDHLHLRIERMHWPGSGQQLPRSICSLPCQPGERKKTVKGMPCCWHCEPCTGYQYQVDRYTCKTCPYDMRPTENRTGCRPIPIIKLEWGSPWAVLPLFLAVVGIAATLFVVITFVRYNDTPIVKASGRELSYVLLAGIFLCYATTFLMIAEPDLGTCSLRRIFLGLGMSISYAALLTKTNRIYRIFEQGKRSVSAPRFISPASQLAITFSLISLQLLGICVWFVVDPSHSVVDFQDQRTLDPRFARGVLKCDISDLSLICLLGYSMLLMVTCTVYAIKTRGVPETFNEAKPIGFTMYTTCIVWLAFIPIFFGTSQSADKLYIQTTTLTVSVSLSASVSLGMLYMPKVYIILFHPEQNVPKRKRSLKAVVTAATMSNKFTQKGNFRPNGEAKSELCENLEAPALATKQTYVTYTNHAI

SMILES | Emax [%] | EC50 [nM]
O=S(=O)(Nc1ccccc1Br)c1ccc2[nH]c(-c3ccccc3)nc2c1 [Example 1, N-(2-Bromophenyl)-2-phenyl-1H-benzo[d]imidazole-5-sulfonamide] | 60 | 499
O=S(=O)(Nc1ccccc1Cl)c1ccc2[nH]c(C3CCCCC3)nc2c1 [Example 4, N-(2-Chlorophenyl)-2-cyclohexyl-1H-benzo[d]imidazole-5-sulfonamide] | 141 | 1760
O=S(=O)(Nc1ccccc1Cl)c1ccc2[nH]c(-c3cnccn3)nc2c1 [Example 7, N-(2-Chlorophenyl)-2-(pyrazin-2-yl)-1H-benzo[d]imidazole-5-sulfonamide] | 149 | 1490
O=S(=O)(Nc1ccccc1Cl)c1ccc2[nH]c(-c3cscn3)nc2c1 [Example 10, N-(2-Chlorophenyl)-2-(thiazol-4-yl)-1H-benzo[d]imidazole-5-sulfonamide bis TFA salt] | 169 | 310
O=S(=O)(Nc1ccccc1Cl)c1ccc2[nH]c(-c3nccs3)nc2c1 [Example 14, N-(2-Chlorophenyl)-2-(thiazol-2-yl)-1H-benzo[d]imidazole-5-sulfonamide] | 194 | 770
O=S(=O)(Nc1cccnc1)c1ccc2[nH]c(-c3ccccc3)nc2c1 [Example 16, 2-Phenyl-N-(pyridin-3-yl)-1H-benzo[d]imidazole-5-sulfonamide bis TFA salt] | 41 | 5950
O=S(=O)(Nc1ccccc1F)c1ccc2[nH]c(-c3ccccc3)nc2c1 [Example 17, N-(2-Fluorophenyl)-2-phenyl-1H-benzo[d]imidazole-5-sulfonamide TFA salt] | 87 | 320
O=S(=O)(NC1CCCC1)c1ccc2[nH]c(-c3ccccc3)nc2c1 [Example 18, N-Cyclopentyl-2-phenyl-1H-benzo[d]imidazole-5-sulfonamide TFA salt] | 105 | 11700
N#Cc1ccc(NS(=O)(=O)c2ccc3[nH]c(-c4ccccc4)nc3c2)cc1 [Example 19, N-(4-Cyanophenyl)-2-phenyl-1H-benzo[d]imidazole-5-sulfonamide TFA salt] | 24 | 4900
O=S(=O)(Nc1ccccc1Cl)c1ccc2[nH]c(-c3cccc4c3OCO4)nc2c1 [Example 20, 2-(benzo[d][1,3]dioxol-4-yl)-N-(2-chlorophenyl)-1H-benzo[d]imidazole-5-sulfonamide] | 49 | 172
O=S(=O)(Nc1ccccc1Cl)c1ccc2[nH]c(-c3c(F)cccc3Cl)nc2c1 [Example 22, 2-(2-chloro-6-fluorophenyl)-N-(2-chlorophenyl)-1H-benzo[d]imidazole-5-sulfonamide] | 59 | 5750
O=S(=O)(Nc1ccccc1Cl)c1ccc2[nH]c(-c3ccccc3C(F)(F)F)nc2c1 [Example 23, N-(2-chlorophenyl)-2-(2-(trifluoromethyl)phenyl)-1H-benzo[d]imidazole-5-sulfonamide] | 36 | 9440
O=S(=O)(Nc1ccccc1Cl)c1ccc2[nH]c(-c3ncc[nH]3)nc2c1 [Example 27, N-(2-chlorophenyl)-2-(1H-imidazol-2-yl)-1H-benzo[d]imidazole-5-sulfonamide] | 69 | 12800
O=S(=O)(Nc1c(F)cccc1F)c1ccc2[nH]c(-c3ccccc3)nc2c1 [Example 28, N-(2,6-difluorophenyl)-2-phenyl-1H-benzo[d]imidazole-5-sulfonamide] | 38 | 318

More lines, now with the values ahead:

Emax [%] | EC50 [nM] | SMILES
77 | 353 | O=S(=O)(Nc1ccccc1Cl)c1ccc2[nH]c(-c3ccccc3)nc2c1 [Example 2, N-(2-Chlorophenyl)-2-phenyl-1H-benzo[d]imidazole-5-sulfonamide TFA salt]
226 | 72.3 | O=S(=O)(Nc1ccccc1Cl)c1ccc2[nH]c(-c3ccccn3)nc2c1 [Example 3, N-(2-Chlorophenyl)-2-(pyridin-2-yl)-1H-benzo[d]imidazole-5-sulfonamide]
84 | 5250 | O=S(=O)(Nc1ccccc1Cl)c1ccc2[nH]c(-c3cccnc3)nc2c1 [Example 5, N-(2-chlorophenyl)-2-(pyridin-3-yl)-1H-benzo[d]imidazole-5-sulfonamide]
111 | 361 | O=S(=O)(Nc1ccccc1Cl)c1ccc2[nH]c(-c3ccsc3)nc2c1 [Example 6, N-(2-Chlorophenyl)-2-(thiophen-3-yl)-1H-benzo[d]imidazole-5-sulfonamide]
204 | 5670 | O=S(=O)(Nc1ccccc1Cl)c1ccc2[nH]c(-c3cccnn3)nc2c1 [Example 8, N-(2-chlorophenyl)-2-(pyridazin-3-yl)-1H-benzo[d]imidazole-5-sulfonamide TFA salt]
103 | 318 | O=S(=O)(Nc1ccccc1Cl)c1ccc2[nH]c(-c3cccs3)nc2c1 [Example 9, N-(2-Chlorophenyl)-2-(thiophen-2-yl)-1H-benzo[d]imidazole-5-sulfonamide TFA salt]
148 | 2830 | O=S(=O)(Nc1ccccc1Cl)c1ccc2[nH]c(-c3ccncn3)nc2c1 [Example 11, N-(2-Chlorophenyl)-2-(pyrimidin-4-yl)-1H-benzo[d]imidazole-5-sulfonamide]
98 | 116 | O=S(=O)(Nc1ccccc1Cl)c1ccc2[nH]c(-c3cccc(Cl)n3)nc2c1 [Example 12, N-(2-Chlorophenyl)-2-(6-chloropyridin-2-yl)-1H-benzo[d]imidazole-5-sulfonamide]
145 | 111 | O=S(=O)(Nc1ccccc1Cl)c1ccc2[nH]c(-c3cccc(F)n3)nc2c1 [Example 13, N-(2-Chlorophenyl)-2-(6-fluoropyridin-2-yl)-1H-benzo[d]imidazole-5-sulfonamide]
192 | 747 | O=S(=O)(Nc1ccccc1Cl)c1ccc2[nH]c(-c3ncccc3F)nc2c1 [Example 15, N-(2-Chlorophenyl)-2-(3-fluoropyridin-2-yl)-1H-benzo[d]imidazole-5-sulfonamide]
64 | 988 | O=S(=O)(Nc1ccccc1Cl)c1ccc2[nH]c(-c3ccccc3F)nc2c1 [Example 21, N-(2-chlorophenyl)-2-(2-fluorophenyl)-1H-benzo[d]imidazole-5-sulfonamide]
160 | > 10000 | O=S(=O)(Nc1ccccc1Cl)c1ccc2[nH]c(-c3c(F)cccc3F)nc2c1 [Example 24, N-(2-chlorophenyl)-2-(2,6-difluorophenyl)-1H-benzo[d]imidazole-5-sulfonamide]
96 | 747 | O=S(=O)(Nc1ccccc1Cl)c1ccc2[nH]c(-c3ccco3)nc2c1 [Example 25, N-(2-chlorophenyl)-2-(furan-2-yl)-1H-benzo[d]imidazole-5-sulfonamide]
68 | 328 | O=S(=O)(Nc1ccccc1Cl)c1ccc2[nH]c(-c3ccc(C(F)(F)F)o3)nc2c1 [Example 26, N-(2-chlorophenyl)-2-(5-(trifluoromethyl)furan-2-yl)-1H-benzo[d]imidazole-5-sulfonamide]
52 | 76 | Cc1ccc(-c2nc3cc(S(=O)(=O)Nc4ccccc4Cl)ccc3[nH]2)o1 [Example 29, N-(2-chlorophenyl)-2-(5-methylfuran-2-yl)-1H-benzo[d]imidazole-5-sulfonamide]
